Measured values from US7119229B2 (priority 2001, dated 2006).
Read-outs that look alike come from different tables or passages of the source.

Legend:
[1] = tested on: WP2 uvrA strains (tryptophan auxotrophic strains); experiment: Reverse mutation assay (Ames test), E. coli WP2 uvrA
Protocol: (§1) This assay is carried out to test mutagenicity of chemical substances using histidine auxotrophic strains that are one of Salmonella Typhimurium mutants. […] When various mutagens are added to the culture medium, only revertants generated by reverse mutation survive.
(§2) Ames test was carried out using […]. […] After incubation, the number of revertant colonies was counted. 3 plates were prepared for each test and the average was calculated.

XF-498 (human CNS) = experiment: SRB cytotoxicity assay, XF498; format: cell-based; conditions: 72 hours, read-out: ED50 XF498
Protocol: (§3) Human tumor cells, including MCF-7 (human breast adenomatous tumor), MCF-7/DOX (adriamycin resistant cell strain), MRS-SA (human uterine sarcoma), MES-SA/DX5 (adriamycin resistant cell strain), A 549 (human non-small cell lung), SKOV-3 (human ovarian), SKMEL-2 (human melanoma), XF-498 (human CNS), HCT-15 (human colon) were incubated at 37° C. in the presence of 5% CO2 using a DMEM culture medium. The respective cells were seeded into each well of 96-well plates at a concentration of 2×10^3˜5×10^3 cells/well. […] Each cell line of the resultant plates was fixed with trichloroacetic acid (TCA), stained with 0.4% SRB solution and rinsed with 1% acetic acid. Thereafter, the dye was dissolved in 10 mM Tris base to measure the optical density (OD) at 520 nm.

[2] = tested on: MES-SA (human uterine sarcoma); experiment: SRB cytotoxicity assay, MES-SA; format: cell-based; conditions: 72 h, read-out: ED50 MES-SA
Protocol: as §3

HCT-15 (human colon) = experiment: SRB cytotoxicity assay, HCT15; format: cell-based; conditions: HCT-15, 72 h, read-out: ED50 HCT15
Protocol: as §3

[3] = tested on: MES-SA/DX5 (adriamycin resistant cell strain); experiment: SRB cytotoxicity assay, MES-SA/DX5; format: cell-based; conditions: Homo sapiens, MES-SA/Dx5, 72 h, read-out: ED50 MES-SA/DX5
Protocol: as §3

SKMEL-2 (human melanoma) = experiment: SRB cytotoxicity assay, SK-MEL-2; format: cell-based; conditions: SK-MEL-2, 72 h, read-out: ED50 SK-MEL-2
Protocol: as §3

[4] = tested on: A 549 (human non-small cell lung); experiment: SRB cytotoxicity assay, A549; format: cell-based; conditions: A549, 72 h, read-out: ED50 A549
Protocol: as §3

SKOV-3 (human ovarian) = experiment: SRB cytotoxicity assay, SK-OV-3; format: cell-based; conditions: 72 hours, read-out: ED50 SK-OV-3
Protocol: as §3

[5] = tested on: MCF-7 (human breast adenomatous tumor); experiment: SRB cytotoxicity assay, MCF7; format: cell-based; conditions: MCF7, 72 h, read-out: ED50 MCF7
Protocol: as §3

TA1537 = experiment: Reverse mutation assay (Ames test), TA1537
Protocol: as §1, §2

TA100 = tested on: TA100
Protocol: as §1, §2

TA98 = tested on: TA98
Protocol: as §1, §2

TA1535 = conditions: TA1525 (so in the source)
Protocol: as §1, §2

ICR mice = experiment: Acute (intravenous administration) toxicity assay; conditions: for Days for the test (death) Total: deaths/mice
[6] = tested on: BALB/c mouse spleen cells, B cells activated with lipopolysaccharide (LPS); experiment: Immunosuppressive effect test using BALB/c mouse spleen cells, LPS (B cells); format: cell-based; conditions: 20 μg/ml lipopolysaccharide, 72 hours, MTS, FIGS. 2 and 3
Protocol: This test was carried out to determine the immunosuppressive effect of an immunosuppressive candidate material by checking anti-proliferation of T cells and B cells. To identify the proliferation inhibitory extent, responding cells (BALB/c mouse spleen cells) were treated with an immunosuppressive candidate material, lipopolysaccharide (LPS) as a B cell activator and concanvalin A (ConA) as a T cell activator. It is known that the responding cells treated with LPS induce proliferation of B cells and those treated with ConA induce proliferation of T cells.
Responding cells (BALB/c mouse spleen cells) were seeded into each well of 96-well plates at a concentration of 2×10^5 cells/well. […] After culturing for 72 hours at a CO2 incubator, a 20 μl MTS solution was added to each well, followed by further culturing for 2 to 4 hours and measuring OD at 490 nm using ELISA.

COc1cc2c(c(OC)c1OC)-c1ccc(OC)c(=O)cc1[C@@H](NC(=O)c1cccc(CO[N+](=O)[O-])c1)CC2 [Compound 6, 3-nitrooxymethyl-N-(1,2,3,10-tetramethoxy-9-oxo-5,6,7,9-tetrahydro-benzo[a]heptarene-7-yl)-benzamide]
Colony/Plate S-9 Mixture (+) ([1]; 317.5 μg/Plate): 12 Colony/Plate | Colony/Plate S-9 Mixture (−) ([1]; 317.5 μg/Plate): 16 Colony/Plate | Colony/Plate S-9 Mixture (+) ([1]; 625 μg/Plate): 12 Colony/Plate | Colony/Plate S-9 Mixture (−) ([1]; 625 μg/Plate): 9 Colony/Plate | Colony/Plate S-9 Mixture (+) ([1]; 1250 μg/Plate): 12 Colony/Plate | Colony/Plate S-9 Mixture (−) ([1]; 1250 μg/Plate): 10 Colony/Plate | Colony/Plate S-9 Mixture (+) ([1]; 2500 μg/Plate): 9 Colony/Plate | Colony/Plate S-9 Mixture (−) ([1]; 2500 μg/Plate): 8 Colony/Plate | Colony/Plate S-9 Mixture (+) ([1]; 5000 μg/Plate): 13 Colony/Plate | Colony/Plate S-9 Mixture (−) ([1]; 5000 μg/Plate): 11 Colony/Plate | EC50 (XF-498 (human CNS)): 0.1 nM | EC50 [2]: 0.2 nM | EC50 (HCT-15 (human colon)): 0.1 nM | EC50 [3]: 773 nM | EC50 (SKMEL-2 (human melanoma)): 0.1 nM | EC50 [4]: 0.1 nM | EC50 (SKOV-3 (human ovarian)): 0.2 nM | EC50 [5]: 0.02 nM | Colony/Plate S-9 Mixture (+) (TA1537; TA1537, 317.5 μg/Plate): 11 Colony/Plate | Colony/Plate S-9 Mixture (−) (TA1537; TA1537, 317.5 μg/Plate): 8 Colony/Plate | Colony/Plate S-9 Mixture (+) (TA1537; TA1537, 625 μg/Plate): 16 Colony/Plate | Colony/Plate S-9 Mixture (−) (TA1537; TA1537, 625 μg/Plate): 10 Colony/Plate | Colony/Plate S-9 Mixture (+) (TA1537; TA1537, 1250 μg/Plate): 13 Colony/Plate | Colony/Plate S-9 Mixture (−) (TA1537; TA1537, 1250 μg/Plate): 16 Colony/Plate | Colony/Plate S-9 Mixture (+) (TA1537; TA1537, 2500 μg/Plate): 17 Colony/Plate | Colony/Plate S-9 Mixture (−) (TA1537; TA1537, 2500 μg/Plate): 11 Colony/Plate | Colony/Plate S-9 Mixture (+) (TA1537; TA1537, 5000 μg/Plate): 14 Colony/Plate | Colony/Plate S-9 Mixture (−) (TA1537; TA1537, 5000 μg/Plate): 7 Colony/Plate | Colony/Plate S-9 Mixture (+) (TA100; TA100, 317.5 μg/Plate): 96 Colony/Plate | Colony/Plate S-9 Mixture (−) (TA100; TA100, 317.5 μg/Plate): 81 Colony/Plate | Colony/Plate S-9 Mixture (+) (TA100; TA100, 625 μg/Plate): 84 Colony/Plate | Colony/Plate S-9 Mixture (−) (TA100; TA100, 625 μg/Plate): 77 Colony/Plate | Colony/Plate S-9 Mixture (+) (TA100; TA100, 1250 μg/Plate): 81 Colony/Plate | Colony/Plate S-9 Mixture (−) (TA100; TA100, 1250 μg/Plate): 84 Colony/Plate | Colony/Plate S-9 Mixture (+) (TA100; TA100, 2500 μg/Plate): 77 Colony/Plate | Colony/Plate S-9 Mixture (−) (TA100; TA100, 2500 μg/Plate): 88 Colony/Plate | Colony/Plate S-9 Mixture (+) (TA100; TA100, 5000 μg/Plate): 78 Colony/Plate | Colony/Plate S-9 Mixture (−) (TA100; TA100, 5000 μg/Plate): 79 Colony/Plate | Colony/Plate S-9 Mixture (+) (TA98; TA98, 317.5 μg/Plate): 32 Colony/Plate | Colony/Plate S-9 Mixture (−) (TA98; TA98, 317.5 μg/Plate): 21 Colony/Plate | Colony/Plate S-9 Mixture (+) (TA98; TA98, 625 μg/Plate): 29 Colony/Plate | Colony/Plate S-9 Mixture (−) (TA98; TA98, 625 μg/Plate): 32 Colony/Plate | Colony/Plate S-9 Mixture (+) (TA98; TA98, 1250 μg/Plate): 33 Colony/Plate | Colony/Plate S-9 Mixture (−) (TA98; TA98, 1250 μg/Plate): 24 Colony/Plate | Colony/Plate S-9 Mixture (+) (TA98; TA98, 2500 μg/Plate): 22 Colony/Plate | Colony/Plate S-9 Mixture (−) (TA98; TA98, 2500 μg/Plate): 22 Colony/Plate | Colony/Plate S-9 Mixture (+) (TA98; TA98, 5000 μg/Plate): 23 Colony/Plate | Colony/Plate S-9 Mixture (−) (TA98; TA98, 5000 μg/Plate): 19 Colony/Plate | Colony/Plate S-9 Mixture (+) (TA1535; 317.5 μg/Plate): 14 Colony/Plate | Colony/Plate S-9 Mixture (−) (TA1535; 317.5 μg/Plate): 14 Colony/Plate | Colony/Plate S-9 Mixture (+) (TA1535; 625 μg/Plate): 12 Colony/Plate | Colony/Plate S-9 Mixture (−) (TA1535; 625 μg/Plate): 18 Colony/Plate | Colony/Plate S-9 Mixture (+) (TA1535; 1250 μg/Plate): 11 Colony/Plate | Colony/Plate S-9 Mixture (−) (TA1535; 1250 μg/Plate): 15 Colony/Plate | Colony/Plate S-9 Mixture (+) (TA1535; 2500 μg/Plate): 11 Colony/Plate | Colony/Plate S-9 Mixture (−) (TA1535; 2500 μg/Plate): 10 Colony/Plate | Colony/Plate S-9 Mixture (+) (TA1535; 5000 μg/Plate): 9 Colony/Plate | Colony/Plate S-9 Mixture (−) (TA1535; 5000 μg/Plate): 13 Colony/Plate | Days for the test (death) Total (ICR mice; 5 mg/kg): 0/5 | Days for the test (death) Total (ICR mice; 10 mg/kg): 0/5 | Days for the test (death) Total (ICR mice; 25 mg/kg): 0/2 | Days for the test (death) 1 (ICR mice; 50 mg/kg, day 1): 3 | Days for the test (death) Total (ICR mice; 50 mg/kg): 3/3 | anti-proliferation of B cells [6]: remarkable anti-proliferous effect
